Laboratory results taken from ChEMBL document CHEMBL5030517, “6-Halopyridylmethylidene Penicillin-Based Sulfones Efficiently Inactivate the Natural Resistance of Pseudomonas aeruginosa to β-Lactam Antibiotics” (J Med Chem, 2021).
In brackets after ≈: the same amount, converted by molar mass.

Assays:
Type in all cases: functional
Pseudomonas aeruginosa [1] = assay: Antibacterial activity against Pseudomonas aeruginosa PAO1 deltadacBdeltapbpGdeltadacC by broth microdilution method
Pseudomonas aeruginosa [2] = assay: Antipseudomonal activity against pseudomonas aeruginosa PAOdeltaC+pUCP-(PDC-5) assessed as AmpC RNA level relative to Pseudomonas aeruginosa PAO1
Pseudomonas aeruginosa [3] = assay: Antibacterial activity against Pseudomonas aeruginosa PAO1 deltadacBdeltaampD by broth microdilution method
Pseudomonas aeruginosa [4] = assay: Antibacterial activity against Pseudomonas aeruginosa PAO1 6/04-224 (ST-175) by broth microdilution method
Pseudomonas aeruginosa [5] = assay: Antibacterial activity against Pseudomonas aeruginosa PAO1 deltadacB by broth microdilution method
Pseudomonas aeruginosa [6] = assay: Antipseudomonal activity against pseudomonas aeruginosa Pseudomonas aeruginosa PAHUAC-14 (ST-966) assessed as AmpC RNA level relative to Pseudomonas aeruginosa PAO1
Pseudomonas aeruginosa [7] = assay: Antipseudomonal activity against pseudomonas aeruginosa PAOdeltaampD AmpC RNA level assessed as AmpC RNA level relative to Pseudomonas aeruginosa PAO1
Pseudomonas aeruginosa [8] = assay: Antipseudomonal activity against pseudomonas aeruginosa PAO deltaDdeltsDh2deltaDh3 assessed as AmpC RNA level relative to Pseudomonas aeruginosa PAO1
Pseudomonas aeruginosa [9] = assay: Antipseudomonal activity against pseudomonas aeruginosa PAO1 AmpC RNA level assessed as AmpC RNA level relative to Pseudomonas aeruginosa PAO1
Pseudomonas aeruginosa [10] = assay: Antipseudomonal activity against pseudomonas aeruginosa Pseudomonas aeruginosa 17/14-017 (ST-235) assessed as AmpC RNA level relative to Pseudomonas aeruginosa PAO1
Pseudomonas aeruginosa [11] = assay: Antibacterial activity against Pseudomonas aeruginosa PAO1 by broth microdilution method
Pseudomonas aeruginosa [12] = assay: Antipseudomonal activity against pseudomonas aeruginosa PAOdeltaC+pUCP-(PDC-1) assessed as AmpC RNA level relative to Pseudomonas aeruginosa PAO1
Pseudomonas aeruginosa [13] = assay: Antibacterial activity against Pseudomonas aeruginosa PAO1 13/09-018 (ST-175) by broth microdilution method
Pseudomonas aeruginosa [14] = assay: Antipseudomonal activity against pseudomonas aeruginosa Pseudomonas aeruginosa 23/14-053 (ST-309) assessed as AmpC RNA level relative to Pseudomonas aeruginosa PAO1
Pseudomonas aeruginosa [15] = assay: Antipseudomonal activity against pseudomonas aeruginosa PAOdeltaC AmpC RNA level assessed as AmpC RNA level relative to Pseudomonas aeruginosa PAO1
Pseudomonas aeruginosa [16] = assay: Antipseudomonal activity against pseudomonas aeruginosa Pseudomonas aeruginosa 53/22-113 (ST-244) assessed as AmpC RNA level relative to Pseudomonas aeruginosa PAO1
Pseudomonas aeruginosa [17] = assay: Antipseudomonal activity against pseudomonas aeruginosa PAO deltadacBdeltadacC assessed as AmpC RNA expression by RT-PCR analysis relative to Pseudomonas aeruginosa PAO1
Pseudomonas aeruginosa [18] = assay: Antibacterial activity against Pseudomonas aeruginosa PAO1 deltaC+pUCP-(PDC-5) by broth microdilution method
Pseudomonas aeruginosa [19] = assay: Antipseudomonal activity against pseudomonas aeruginosa PAO deltadacBdeltaampD assessed as AmpC RNA expression by RT-PCR analysis Pseudomonas aeruginosa PAO1
Pseudomonas aeruginosa [20] = assay: Antibacterial activity against Pseudomonas aeruginosa PAO1 deltaDdeltsDh2deltaDh3 by broth microdilution method
Pseudomonas aeruginosa [21] = assay: Antipseudomonal activity against pseudomonas aeruginosa PAO deltadacBdeltapbpGdeltadacC assessed as AmpC RNA level relative to Pseudomonas aeruginosa PAO1
Pseudomonas aeruginosa [22] = assay: Antibacterial activity against Pseudomonas aeruginosa PAO1 53/22-113 (ST-244) by broth microdilution method
Pseudomonas aeruginosa [23] = assay: Antipseudomonal activity against Pseudomonas aeruginosa PAO1 deltadacB assessed as AmpC RNA expression by RT-PCR analysis relative to Pseudomonas aeruginosa PAO1
Pseudomonas aeruginosa [24] = assay: Antipseudomonal activity against pseudomonas aeruginosa Pseudomonas aeruginosa PAHUAC-27(ST-22) assessed as AmpC RNA level relative to Pseudomonas aeruginosa PAO1
Pseudomonas aeruginosa [25] = assay: Antibacterial activity against Pseudomonas aeruginosa PAO1 PAHUAC-27(ST-22) by broth microdilution method
Pseudomonas aeruginosa [26] = assay: Antibacterial activity against Pseudomonas aeruginosa PAO1 deltaampD by broth microdilution method
Pseudomonas aeruginosa [27] = assay: Antipseudomonal activity against pseudomonas aeruginosa Pseudomonas aeruginosa 13/09-018 (ST-175) assessed as AmpC RNA level relative to Pseudomonas aeruginosa PAO1
Pseudomonas aeruginosa [28] = assay: Antibacterial activity against Pseudomonas aeruginosa PAO1 deltadacBdeltadacC by broth microdilution method
Pseudomonas aeruginosa [29] = assay: Antipseudomonal activity against pseudomonas aeruginosa Pseudomonas aeruginosa 36/14-210 (ST-235) assessed as AmpC RNA level relative to Pseudomonas aeruginosa PAO1
Pseudomonas aeruginosa [30] = assay: Antipseudomonal activity against pseudomonas aeruginosa Pseudomonas aeruginosa 6/04-224 (ST-175) assessed as AmpC RNA level relative to Pseudomonas aeruginosa PAO1
Pseudomonas aeruginosa [31] = assay: Antibacterial activity against Pseudomonas aeruginosa PAO1 17/14-017 (ST-235) by broth microdilution method
Pseudomonas aeruginosa [32] = assay: Antibacterial activity against Pseudomonas aeruginosa PAO1 deltaC+pUCP-(PDC-1) by broth microdilution method
Pseudomonas aeruginosa [33] = assay: Antibacterial activity against Pseudomonas aeruginosa PAO1 PAHUAC-14 (ST-966) by broth microdilution method
Pseudomonas aeruginosa [34] = assay: Antibacterial activity against PAOdeltaC by broth microdilution method
Pseudomonas aeruginosa [35] = assay: Antibacterial activity against Pseudomonas aeruginosa PAO1 36/14-210 (ST-235) by broth microdilution method
Pseudomonas aeruginosa [36] = assay: Antibacterial activity against Pseudomonas aeruginosa PAO1 23/14-053 (ST-309) by broth microdilution method

## CC(C)(O/N=C(\C(=O)N[C@@H]1C(=O)N2C(C(=O)[O-])=C(C[n+]3ccccc3)CS[C@H]12)c1csc(N)n1)C(=O)O [CEFTAZIDIME]
Pseudomonas aeruginosa [1]
  MIC: 16 µg/mL (≈ 29.3 µM)
Pseudomonas aeruginosa [2]
  fold change (FC): 4084.8
Pseudomonas aeruginosa [3]
  MIC: 32 µg/mL (≈ 58.5 µM)
Pseudomonas aeruginosa [4]
  MIC: 32 µg/mL (≈ 58.5 µM)
Pseudomonas aeruginosa [5]
  MIC: 16 µg/mL (≈ 29.3 µM)
Pseudomonas aeruginosa [6]
  fold change (FC): 586.3
Pseudomonas aeruginosa [7]
  fold change (FC): 51.4
Pseudomonas aeruginosa [8]
  fold change (FC): 1030.2
Pseudomonas aeruginosa [9]
  fold change (FC): 1
Pseudomonas aeruginosa [10]
  fold change (FC): 32.8
Pseudomonas aeruginosa [11]
  MIC: 1 µg/mL (≈ 1.83 µM)
Pseudomonas aeruginosa [12]
  fold change (FC): 1933.4
Pseudomonas aeruginosa [13]
  MIC: 8 µg/mL (≈ 14.6 µM)
Pseudomonas aeruginosa [14]
  fold change (FC): 6.4
Pseudomonas aeruginosa [15]
  fold change (FC): 0
Pseudomonas aeruginosa [16]
  fold change (FC): 1415.3
Pseudomonas aeruginosa [17]
  fold change (FC): 472.3
Pseudomonas aeruginosa [18]
  MIC: 16 µg/mL (≈ 29.3 µM)
Pseudomonas aeruginosa [19]
  fold change (FC): 1021.4
Pseudomonas aeruginosa [20]
  MIC: 32 µg/mL (≈ 58.5 µM)
Pseudomonas aeruginosa [21]
  fold change (FC): 1109.9
Pseudomonas aeruginosa [22]
  MIC: 64 µg/mL (≈ 117 µM)
Pseudomonas aeruginosa [23]
  FC: 36 µg/mL
Pseudomonas aeruginosa [24]
  fold change (FC): 326.4
Pseudomonas aeruginosa [25]
  MIC: 32 µg/mL (≈ 58.5 µM)
Pseudomonas aeruginosa [26]
  MIC: 16 µg/mL (≈ 29.3 µM)
Pseudomonas aeruginosa [27]
  fold change (FC): 2.4
Pseudomonas aeruginosa [28]
  MIC: 16 µg/mL (≈ 29.3 µM)
Pseudomonas aeruginosa [29]
  fold change (FC): 18.6
Pseudomonas aeruginosa [30]
  fold change (FC): 10.1
Pseudomonas aeruginosa [31]
  MIC: 16 µg/mL (≈ 29.3 µM)
Pseudomonas aeruginosa [32]
  MIC: 16 µg/mL (≈ 29.3 µM)
Pseudomonas aeruginosa [33]
  MIC: 64 µg/mL (≈ 117 µM)
Pseudomonas aeruginosa [34]
  MIC: 1 µg/mL (≈ 1.83 µM)
Pseudomonas aeruginosa [35]
  MIC: 128 µg/mL (≈ 234 µM)
Pseudomonas aeruginosa [36]
  MIC: 8 µg/mL (≈ 14.6 µM)
